# Measured values taken from patent publication US20150275306A1, “METHODS AND MEANS FOR PREDICTING RESISTANCE TO ANTI-CANCER TREATMENT” (Stichting Het Nederlands Kanker Instituut Antoni van …, priority 2012, published 2015).
# Key:
# [1] = tested on: PC9 cells; assay: Long-term cell proliferation (colony formation) assay in PC9; assay type: cell-based; details: for effect of recombinant TGFbeta treatment on drug response, PC9: TGFbeta-dosage dependent, gefitinib 50 nM, cisplatin 0.7 μM
# Method: (§1) H3122, PC9, H3255, SK-CO-1 and SW1417 cells were cultured in RPMI with 8% heat inactivated fetal bovine serum, penicillin and streptomycin at 5% CO2. […] Subclones of each cell line expressing the murine ecotropic receptor were generated and used for all experiments shown. Phoenix cells were used as producers of retroviral supernatants as described at www.stanford.edu/group/nolan/retroviral_systems/phx.html. […] Infected cells were selected for successful retroviral integration using 2 μg/ml of puromycin.
# (§2) For long-term cell proliferation assays, cells were seeded into 6-well plates (2-5×10E4 cells/well) and cultured both in the absence and presence of drugs as indicated. […] All knockdown and overexpression experiments were done by retroviral or lentiviral infection. All relevant assays were performed independently at least three times.
# [2] = tested on: H3122 cells; assay: Long-term cell proliferation (colony formation) assay in H3122; assay type: cell-based; details: for effect of recombinant TGFbeta treatment on drug response, H3122: TGFbeta-dosage dependent, crizotinib, cisplatin 2 μM; for effect of MED12 knockdown on response to chemotherapy drugs, H3122: shMED12 #4 and #5, 2 μM cisplatin or 2.5 μM 5-FU, 18 days; for effect of MED12 knockdown on response to ALK inhibitors, H3122: shMED12 #1-3, 300 nM crizotinib or 2.5 nM NVP-TAE684
# Method: (§3) H3122, PC9, H3255, SK-CO-1 and SW1417 cells were cultured in RPMI with 8% heat inactivated fetal bovine serum, penicillin and streptomycin at 5% CO2. HEK 293T, Phoenix and A375, SK-MEL-28 and Huh-7 cells were cultured in DMEM with 8% heat-inactivated fetal bovine serum, penicillin and streptomycin at 5% CO2. Subclones of each cell line expressing the murine ecotropic receptor were generated and used for all experiments shown. Phoenix cells were used as producers of retroviral supernatants as described at www.stanford.edu/group/nolan/retroviral_systems/phx.html. HEK 293T cells were used as producers of lentiviral supernatants as described at www.broadinstitute.org/rnai/public/resources/protocols. The calcium phosphate method was used for the transfection of Phoenix and 293T cells. Infected cells were selected for successful retroviral integration using 2 μg/ml of puromycin.
# (§4) For long-term cell proliferation assays, cells were seeded into 6-well plates (2-5×10E4 cells/well) and cultured both in the absence and presence of drugs as indicated. More details are described (Huang et al., 2009. Cancer Cell 15: 328-340). All knockdown and overexpression experiments were done by retroviral or lentiviral infection. All relevant assays were performed independently at least three times.
# [3] = tested on: Huh-7 HCC cells; assay: Long-term cell proliferation (colony formation) assay in Huh-7; assay type: cell-based
# Method: as §3, §4
# [4] = molecular target: TGFbeta receptor Type II (Homo sapiens, UniProt P37173); details: cited from earlier work
# Chain of TGFbeta receptor Type II (P37173 23-567, species assumed): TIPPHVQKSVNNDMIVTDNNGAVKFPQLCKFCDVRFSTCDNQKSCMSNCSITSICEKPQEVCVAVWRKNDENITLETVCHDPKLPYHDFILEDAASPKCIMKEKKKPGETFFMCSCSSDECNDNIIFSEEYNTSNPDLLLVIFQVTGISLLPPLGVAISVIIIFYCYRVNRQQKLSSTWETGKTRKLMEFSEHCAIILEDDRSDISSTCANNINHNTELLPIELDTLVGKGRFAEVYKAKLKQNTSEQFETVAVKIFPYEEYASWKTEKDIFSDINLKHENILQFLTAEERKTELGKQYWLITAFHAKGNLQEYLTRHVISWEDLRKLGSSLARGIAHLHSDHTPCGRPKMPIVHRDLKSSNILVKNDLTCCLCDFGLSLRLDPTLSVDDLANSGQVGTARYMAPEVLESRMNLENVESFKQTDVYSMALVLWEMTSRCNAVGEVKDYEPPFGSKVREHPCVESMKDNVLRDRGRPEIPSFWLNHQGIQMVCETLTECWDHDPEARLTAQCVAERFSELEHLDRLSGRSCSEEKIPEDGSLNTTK
# [5] = tested on: SK-CO-1 colorectal cancer cells (KRASV12); assay: Long-term cell proliferation (colony formation) assay in SK-CO-1; assay type: cell-based
# Method: as §3, §4
# [6] = tested on: H3122 cells; details: parental H3122, EML4-ALK translocation; McDermott et al., 2008; cited from earlier work
# [7] = tested on: H3255 cells; assay type: cell-based
# Method: as §1, §2
# [8] = tested on: MEK/ERK activation in H3122 cells; assay: Western blotting of MEK/ERK activation in H3122; assay type: cell-based; details: data not shown
# Description: (§5) Antibody against MED12 (A300-774A) and MED13 (A301-278A) was from Bethyl Laboratories; antibodies against Vimentin (RV202) and N-cadherin (ab18203) were from Abcam; antibody against p-SMAD2 (Ser465/467, #3101), SMAD2 (L16D3, #3103), pMEK1/2 (S217/221, #9121) and MEK1/2 (L38C12, #4694) were from Cell Signaling; anti-Flag M2 (F1804) was from Sigma; antibodies against HSP90 (H-114), p-ERK (E-4), ERK1 (C-16), ERK2 (C-14), CDK8 (D-9), Lamin A/C (636), SP1 (PEP2), alpha-TUBULIN (H-183), TGFbeta R2 (C-16), CDK8 (D9) and normal rabbit IgG control were from Santa Cruz Biotechnology; A mixture of ERK1 and ERK2 antibodies was used for detection of total ERK; 12CA5 hybridoma supernatant was also used to detect HA tagged-TGFbeta R2.
# [9] = tested on: MEK/ERK activation in H3255 cells; assay: Western blotting of MEK/ERK activation in H3255; assay type: cell-based
# Description: as §5
# [10] = tested on: Vimentin, N-cadherin and p-ERK in Huh7 cells; assay: Western blotting of mesenchymal markers and p-ERK in Huh7; assay type: cell-based; details: 50 picoM of TGFbeta for 6 days
# Description: as §5
# [11] = tested on: MEK/ERK activation in PC9 cells; assay: Western blotting of MEK/ERK activation in PC9; assay type: cell-based
# Description: as §5
# [12] = tested on: A375 melanoma cells (BRAFV600E); assay: Long-term cell proliferation (colony formation) assay in A375; assay type: cell-based; details: without targeted cancer drugs
# Method: as §1, §2
compound,measurement,setting,value
N.N.[Cl][Pt][Cl] [cisplatin],"effect of recombinant TGFbeta treatment on drug response, PC9",[1],leads to resistance
same,"effect of MED12 knockdown on response to cisplatin, PC9","[1]; shMED12 #4 and #5, 0.37 or 1.1 μM cisplatin, 21 days",confers resistance
same,"effect of recombinant TGFbeta treatment on drug response, H3122",[2],leads to resistance
same,"effect of MED12 knockdown on response to chemotherapy drugs, H3122",[2],confers resistance
CNC(=O)c1cc(Oc2ccc(NC(=O)Nc3ccc(Cl)c(C(F)(F)F)c3)cc2)ccn1 [sorafenib],"effect of MED12 knockdown on response to sorafenib, Huh-7","[3]; 2 μM sorafenib, 21 days",became resistant
"Cc1cccc(-c2nn3c(c2-c2ccnc4ccc(C(N)=O)cc24)CCC3)n1 [LY2157299, 4-(2-(6-methylpyridin-2-yl)-5,6-dihydro-4H-pyrrolo[1,2-b]pyrazol-3-yl)quinoline-6-carboxamide]",IC50,[4],2 nM
same,"proliferation of control and MED12KD H3122 cells, monotherapy","[2]; 1 μM LY2157299 alone, 14 days",little effect
COc1cc2ncnc(Nc3ccc(F)c(Cl)c3)c2cc1OCCCN1CCOCC1 [gefitinib],"effect of recombinant TGFbeta treatment on drug response, PC9",[1],leads to resistance
"Cn1cnc2c(F)c(Nc3ccc(Br)cc3Cl)c(C(=O)NOCCO)cc21 [AZD6244, seluteminib]","effect of MED12 knockdown on response to MEK inhibitor, SK-CO-1","[5]; 0.5 μM AZD6244, 28 days",conferred resistance
same,"effect of recombinant TGFbeta treatment on drug response, SK-CO-1","[5]; TGFbeta-dosage dependent, AZD6244 0.5 μM",leads to resistance
same,sensitivity of SK-CO-1 cells,[5]; parental cells,highly sensitive
COc1cc(N2CCC(N3CCN(C)CC3)CC2)ccc1Nc1ncc(Cl)c(Nc2ccccc2S(=O)(=O)C(C)C)n1 [NVP-TAE684],sensitivity of H3122 cells to selective ALK inhibitors,[6],exquisitely sensitive
same,"effect of MED12 knockdown on response to ALK inhibitors, H3122",[2]; 28 days,conferred resistance
C#Cc1cccc(Nc2ncnc3cc(OCCOC)c(OCCOC)cc23)c1 [erlotinib],"effect of MED12 knockdown on response to EGFR inhibitors, PC9",[1],conferred resistance
same,"effect of MED12 knockdown on response to EGFR inhibitors, H3255",[7],conferred resistance
"O=c1[nH]cc(F)c(=O)[nH]1 [5-FU, 5-Fluorouracil]","effect of MED12 knockdown on response to chemotherapy drugs, H3122",[2],confers resistance
C[C@@H](Oc1cc(-c2cnn(C3CCNCC3)c2)cnc1N)c1c(Cl)ccc(F)c1Cl [crizotinib],sensitivity of H3122 cells to selective ALK inhibitors,[6],exquisitely sensitive
same,"effect of recombinant TGFbeta treatment on drug response, H3122",[2],leads to resistance
same,proliferation of control H3122 cells,"[2]; pRS control cells, 300 nM crizotinib alone, 28 days",potently inhibited the proliferation
same,"effect of MED12 knockdown on response to ALK inhibitors, H3122",[2]; 28 days,conferred resistance
recombinant TGFbeta: Recombinant hTGFbeta 1 (240-B/CF) purchased from R&D systems,MEK/ERK activation in H3122 cells,[8],caused MEK/ERK activation
same,MEK/ERK activation in H3255 cells,[9],caused MEK/ERK activation
same,"proliferation of Huh-7 cells, TGFbeta alone","[3]; without targeted cancer drugs, data not shown",growth inhibition
same,"levels of Vimentin, N-cadherin and p-ERK in Huh7 cells",[10],"increased levels of Vimentin, N-cadherin and p-ERK"
same,MEK/ERK activation in PC9 cells,[11],caused MEK/ERK activation
same,"proliferation of A375 cells, TGFbeta alone",[12],growth inhibition
